Experimental findings from patent US6025340A, “Surface expression of enzyme in gene directed prodrug therapy” (priority 1994, dated 2000) are described below.

For data set [1], the system named is MDA MB361 transfected cells (CPG2-expressing line and control line). The data set can be described thus: Sulphorhodamine B cytotoxicity assay. To be noted: 4 days incubation. Type of data set: cell-based. The protocol:
Prodrug 2 was also assayed (FIG. 12) in the MDA MB361 transfected cells obtained in Preparative Example 3 using a sulphorhodamine B cytotoxicity assay which was conducted by plating 5000 cells per well in a 96-well microtitre dish. The cells were plated in 160 μl of DMEM medium. After incubation over night the drug or appropriate controls made up in DMEM containing 5% serum was added to the wells in a 40 μl volume. The cells were incubated for 4 days under standard conditions. Following this the medium was removed and the cells treated with ice-cold 10% TCA (trichloroacetic acid) on ice for about 30 minutes. The TCA was removed and the cells rinsed for adding 18 μl of 0.4% sulphorhodamine B (SRB) which was left to stain the cells for 10 minutes. Following staining the cells were rinsed in TCA and air dried before addition of 18 μl of 10 mM TRIS and cell viability was then read. […] (see FIG. 12)

For data set [2], the system named is NIH3T3 cells transfected with MLVCPG2(surface)LNLL. The data set can be described thus: Cytotoxicity assay, [3H]-thymidine incorporation, transiently transfected cells. Type of data set: cell-based, murine. The following applies: CMDA 0.5 mM. The protocol: (§1) The ability of CPG2(surface) to kill NIH3T3 cells in the presence of the CMDA pro-drug was examined. Three sets of NIH3T3 cells were prepared, each of which contained one dish of cells transfected with MLVβplink, one dish of cells transfected with MLVCPG2(surface) or one dish of cells transfected with MLVCPG2(surface)LNLL. The cells were incubated for 42 hours following the transfection and then set 1 was incubated in the presence of prodrug vehicle (5 mM Hepes, 0.5% v/v DMSO, pH7.0; final concentrations) for 24 hours. Set 2 was incubated in the presence of the CMDA prodrug (0.5 mM final concentration) for 3 hours. Set 3 was incubated in CMDA (0.5 mM) for 24 hours. Following prodrug treatment, the cells were washed three times with 5 ml 10% FCS/ DMEM and sets 1 and 3 incubted in fresh medium for a further 24 hours, set 2 for 45 hours. The cells were then passaged into fresh culture dishes, seeded at 1×10^5 cells/ 35 mm dish in 2 ml FCS/ DMEM. After a further 72 hour incubation cell growth was assessed by [3H]-thymidine incorporation.
(§2) For thymidine incorporaion, 1 μCi of [methyl-^3 H]thymidine was added to each well (2 ml medium) and incubated for 5 hours at 37° C. The cells were washed twice with PBSA (4° C.) and fixed with 5% w/v trichloroacetic acid (TCA) in water at 4° C. for 20 minutes. The TCA was removed and the cells washed twice with 2 ml methanol and air dried. The DNA was extracted with 1 ml 0.1 M NaOH, 1% SDS at room temperature for 5 minutes, added to 4 ml scintilation fluid and the incorporated thymidine determined by scintillation counting.
A general note: Dividing cells build labelled thymidine or BrdU into new DNA.

Data set [3] concerns NIH3T3 cells transfected with MLVCPG2(surface). Described as above. Type of data set: cell-based, murine. To be noted: CMDA 0.5 mM. The protocol:
as §1, §2

Data set [4] concerns MDA MB 361 cell line M2 constitutively expressing β-galactosidase. Briefly: Cell viability by [3H]-thymidine incorporation, stable control line. Type of data set: cell-based. The protocol:
(§3) CPG2(surface) QQQ was cloned into pMCEF-Plink as an Nco1/Xba fragment; this plasmid is called pMCEFCPG2(surface)QQQ. MDA361B cells were transfected with either pMCEFCPG2(surface)QQQ, or with pMCEFlacZ according to the protocol described in the Comparative Example and were treated as for the NIH3T3 cells to generate G418 colonies. The G418 resistant colonies were tested for CPG2(surface)QQQ expression by immunoprotein blot analysis, as described for the NIH3T3 cells. From these analyses, two cell lines, M2 which expresses β-galactosidase and M38, which expresses CPG2(surface)QQQ were selected for further testing. […] The expression of β-galactosidase by line M2 was confirmed by enzymatic assay (FIG. 10B, lane 1 contains M2 extract, lane 2 a control extract).
These cell lines were tested for sensitivity to the CMDA prodrug and prodrug 2. 1×10^5 cells were plated into each well of a 24 well plate. The cells were incubated for 48 hours at 37° C. […] The viability of the cells was then determined by using [^3 H]-thymidine incorporation.
In order to examine the bystander effect with the MDA MB 361 cells constitutively expressing CPG2(surface)QQQ, the M38 cell line, the M2 cell line, or a 1:10 mixture of M38: M2 cells were plated (1×10^4 cells) into the wells of a 24 well plate, and incubated for 48 hours. […] The survival of the cells was then determined by [^3 H-methyl] thymidine incorporation.

Data set [5] has as its system NIH3T3 cells transfected with MLVβplink. Briefly: Cytotoxicity assay, [3H]-thymidine incorporation, transiently transfected control cells. The data set is classed as cell-based, murine. To be noted: CMDA 0.5 mM for 3 hours or 24 hours. The protocol: as §1
For thymidine incorporaion, 1 μCi of [methyl-^3 H]thymidine was added to each well (2 ml medium) and incubated for 5 hours at 37° C. […] The DNA was extracted with 1 ml 0.1 M NaOH, 1% SDS at room temperature for 5 minutes, added to 4 ml scintilation fluid and the incorporated thymidine determined by scintillation counting.

Data set [6] concerns NIH3T3 cell line #16 constitutively expressing CPG2(surface)LNLL. The data set can be described thus: Cell survival by [3H]-thymidine incorporation, stable line. Type of data set: cell-based, murine. The following applies: Mus musculus, 60 minutes treatment at 37° C., survival after 5 days. Here is the method:
(§4) Stable cell lines were prepared with NIH3T3 cells to constitutively express CPG2 (surface) LNLL, or as a control the lacZ gene product (β-galactosidase). In order to do this, NIH3T3 cells were transfected with pMCEF-CPG2(surface)LNLL or pMCEFlacZ as described in Comparative Example 1 above, and two days after transfection, the cells were plated at low density into medium containing G418 at 1 mg/ml. Colonies coming from single cells could be observed about two weeks later and these were cloned and grown up individually. The expression of CPG2(surface) was determined by immunoprotein blotting of […] of cell extract (extracted as described in the Comparative Example above) from each of the G418 resistant colonies with the antiserum from the Comparative Example 1 above. The cell line #16 which expresses high levels of CPG2(surface)LNLL (FIG. 6A) and cell line #3, which expresses the β-galactosidase (see below) were selected for further investigation. […] 250 μl of 1 MNa2 CO3 was added to the sample and the OD420 was measured.
(§5) Cell lines #3 and #16 obtained in Preparative Example 2 were tested for cytotoxicity with the CMDA pro-drug. […] After a further 6 hour incubation, 10% of the cells were re-plated into 24 well dishes, incubated for a further 5 days and cell survival was determined by [^3 H]-thymidine incorporation.

The test system of data set [7] is MDA MB 361 cell line M38 constitutively expressing CPG2(surface)QQQ. Briefly: Cell viability by [3H]-thymidine incorporation, stable line. Type of data set: cell-based. To be noted: for sensitivity to prodrug compared with line M2: 60 minutes at 37° C., viability after 5 days. The protocol: as §3
These cell lines were tested for sensitivity to the CMDA prodrug and prodrug 2. 1×10^5 cells were plated into each well of a 24 well plate. The cells were incubated for 48 hours at 37° C. They were then incubated in increasing concentrations of either CMDA or prodrug 2 for 60 minutes at 37° C., washed twice, returned to medium and incubated for a further 5 days. The viability of the cells was then determined by using [^3 H]-thymidine incorporation.
(§6) In order to examine the bystander effect with the MDA MB 361 cells constitutively expressing CPG2(surface)QQQ, the M38 cell line, the M2 cell line, or a 1:10 mixture of M38: M2 cells were plated (1×10^4 cells) into the wells of a 24 well plate, and incubated for 48 hours. The cells were then treated with varying concentrations of prodrug 2 for 60 min, washed twice with fresh medium and incubated in fresh medium for 5 days. The survival of the cells was then determined by [^3 H-methyl] thymidine incorporation.

Data set [8] relates to mixture of NIH3T3 cell lines #3 and #16. Briefly: Bystander effect, mixed cell lines, [3H]-thymidine incorporation. Type of data set: cell-based, murine. The following applies: 40% of the cells expressing CPG2(surface)LNLL; 250 μM or 1000 μM CMDA for 60 minutes. Here is the method:
Cell lines #3 and #16 obtained in Preparative Example 2 were tested for cytotoxicity with the CMDA pro-drug. 1×10^5 cells were plated into each well of 24 well dishes, incubated for 40 hours and then treated with increasing concentrations of CMDA at 37° C. for 60 minutes. After a further 6 hour incubation, 10% of the cells were re-plated into 24 well dishes, incubated for a further 5 days and cell survival was determined by [^3 H]-thymidine incorporation.
The bystander effect was determined by mixing cell lines #3 and #16 obtained in Preparative Example 2 at a variety of concentrations as indicated and a total of 1×10^5 cells were plated per well in 24 well plates. The cells were incubated and treated as described in Example 3, except that they were treated with either 250 μM or 1000 μM CMDA for 60 minutes as indicated. The cell survival was determined as in Example 3.

In data set [9] the test system is NIH3T3 cell line #3 constitutively expressing β-galactosidase. Briefly: Cell survival by [3H]-thymidine incorporation, stable control line. The following applies: increasing concentrations, 60 minutes at 37° C. The data set is classed as cell-based, murine. Here is the method:
as §4, §5

Data set [10] has as its system 1:10 mixture of M38:M2 MDA MB 361 cells. The data set can be described thus: Bystander effect, mixed cell lines, [3H]-thymidine incorporation. The data set is classed as cell-based. To be noted: Example 7. Here is the method: as §6

For `[NH2][Pt]([NH2])([Cl])[Cl]` [CDDP, Cisplatin], the “difference in susceptibility, CPG2-expressing line versus control line” value in data set [1] is given as “not found to be any difference”.

Take `CS(=O)(=O)OCCN(CCCl)c1ccc(C(=O)N[C@@H](CCC(=O)O)C(=O)O)cc1` [CMDA, N-4-[(2-chloroethyl)(2-mesyloxyethyl)amino]benzoyl-L-glutamic acid]: the entries for the “effect of prodrug treatment on cell growth” value in data set [2] (24 hour prodrug treatment) and in data set [3] (3 hour prodrug treatment) were “complete cell death” and “unaffected”, respectively. The inhibition at 500 µM in data set [2] (Mus musculus, NIH3T3, 3 hour prodrug treatment, read-out: reduction in cell growth) is -20%; in data set [3] (Mus musculus, NIH3T3, 24 hour prodrug treatment, read-out: inhibition of cell growth) it was -87%. The sensitivity to prodrug result in data set [4] (60 minutes at 37° C., up to highest concentration tested) was “did not show any sensitivity”. Moreover, the “effect of prodrug treatment on growth rate” value in data set [5] is given as “minimal effect”. Further, the midpoint of inhibition in data set [6], the IC50, lay at 125 µM. Also, in [7], the “sensitivity to prodrug compared with line M2” value is reported as “more sensitive”. Further, the cells killed entry in data set [8] is “greater than 80%”. The “sensitivity to prodrug (cell survival)” value in [9] is on record as “not sensitive to even the highest concentration”.

As for `O=C(O)CC[C@H](NC(=O)Oc1ccc(N(CCI)CCI)cc1)C(=O)O` [prodrug 2, N-(4-[bis(2-iodoethyl)amino]phenoxycarbonyl)-L-glutamic acid], the IC50 (commonly the concentration that gives 50% inhibition) in [4] (Example 7, 60 min treatment, survival after 5 days) is around 200 µM. For the same molecule, the “fold change of IC50 in 1:10 mixture versus M2” value in [10] is listed as -10 fold. Also, in data set [7], the “sensitivity to prodrug compared with line M2” value was “more sensitive”. In addition, the “fold more sensitive, M38 cells versus M2 cells” value in [7] (Example 5, 1×10^5 cells per well, 60 minutes treatment) is reported as around 200 fold.
